Measurements reported in ChEMBL document CHEMBL1145850, “Pharmacophoric requirements for the cannabinoid side chain. Probing the cannabinoid receptor subsite at C1'” (J Med Chem, 2003).
pKi: −log10 of the molar value.

Columns and labels:
Cannabinoid receptor 2 = Cannabinoid receptor 2 (Mus musculus, UniProt P47936); assay: Compound was tested for its binding affinity against mouse spleen Cannabinoid receptor 2 using [3H]CP-55940 as radioligand; format: tissue-based
Cannabinoid receptor 1 = Cannabinoid receptor 1 (Rattus norvegicus, UniProt P20272); assay: Binding affinity against rat brain Cannabinoid receptor 1 using [3H]CP-55940
Cannabinoid receptor 1, sequence (P20272 whole entry): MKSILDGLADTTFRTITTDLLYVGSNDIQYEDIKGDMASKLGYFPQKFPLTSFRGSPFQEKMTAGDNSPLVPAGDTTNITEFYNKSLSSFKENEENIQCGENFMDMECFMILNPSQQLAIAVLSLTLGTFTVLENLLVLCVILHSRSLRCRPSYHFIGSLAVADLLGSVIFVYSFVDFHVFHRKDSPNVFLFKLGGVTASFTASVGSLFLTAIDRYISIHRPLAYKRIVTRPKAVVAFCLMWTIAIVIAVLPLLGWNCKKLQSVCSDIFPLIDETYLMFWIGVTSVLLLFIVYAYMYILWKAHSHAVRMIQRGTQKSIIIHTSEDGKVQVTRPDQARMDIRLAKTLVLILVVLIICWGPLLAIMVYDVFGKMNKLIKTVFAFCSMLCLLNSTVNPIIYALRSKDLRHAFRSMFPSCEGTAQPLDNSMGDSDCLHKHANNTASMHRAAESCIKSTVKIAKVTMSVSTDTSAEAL

Cannabinoid receptor 2, sequence (P47936 whole entry): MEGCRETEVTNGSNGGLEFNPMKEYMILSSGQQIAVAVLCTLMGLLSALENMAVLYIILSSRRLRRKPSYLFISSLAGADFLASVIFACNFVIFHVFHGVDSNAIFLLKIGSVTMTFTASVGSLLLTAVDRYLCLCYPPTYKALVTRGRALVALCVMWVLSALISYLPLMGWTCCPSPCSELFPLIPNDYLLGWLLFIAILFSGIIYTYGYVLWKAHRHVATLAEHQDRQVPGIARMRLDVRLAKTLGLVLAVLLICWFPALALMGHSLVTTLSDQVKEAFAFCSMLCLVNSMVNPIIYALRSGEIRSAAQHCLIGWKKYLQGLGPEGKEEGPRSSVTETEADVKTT

Compound | pKi (Cannabinoid receptor 2) | pKi (Cannabinoid receptor 1)
CCCCCCC1(c2cc(O)c3c(c2)OC(C)(C)[C@@H]2CC=C(C)C[C@@H]32)OCCO1 | 9.66 | 9.28
CCCCCCC1(c2cc(O)c3c(c2)OC(C)(C)[C@@H]2CC=C(C)C[C@@H]32)SCCCS1 | 8.44 | 8.74
CCCCCCC1(c2cc(O)c3c(c2)OC(C)(C)[C@@H]2CC=C(C)C[C@@H]32)CCCC1 | 8.72 | 9.35
CC1=CC[C@@H]2[C@@H](C1)c1c(O)cc(C3SCCS3)cc1OC2(C)C | 6.99 | 6.77
CCCCCCC1(c2cc(O)c3c(c2)OC(C)(C)[C@@H]2CC=C(C)C[C@@H]32)Sc2ccccc2S1 | 6.59 | 7.24
CCCCCCC1(c2cc(O)c3c(c2)OC(C)(C)[C@@H]2CC=C(C)C[C@@H]32)SC(C)C(C)S1 (stereo partly drawn) | 7.71 | 7.49
CCCCCCCc1cc(O)c2c(c1)OC(C)(C)[C@@H]1CC=C(C)C[C@@H]21 | – | 7.66
